According to US20240423207A1, “PICOLINAMIDE COMPOUNDS WITH FUNGICIDAL ACTIVITY” (CORTEVA AGRISCIENCE LLC, priority 2014, published 2024):
Read-outs that look alike come from different tables or passages of the source.

Tests used:
[1] = tested on: Cercospora beticola; experiment: Leaf Spot of Sugar Beets (CERCBE) fungicidal activity on sugar beet plants; type: in vivo; settings: 24 h, 1 Day Protectant, read-out: CERCBE 1 DP disease control
Description: Technical grades of materials were dissolved in acetone, which were then mixed with nine volumes of water (H2O) containing 110 ppm Triton X-100. The fungicide solutions were applied onto wheat seedlings using an automated booth sprayer to run-off. All sprayed plants were allowed to air dry prior to further handling. All fungicides were evaluated using the aforementioned method for their activity vs. all target diseases, unless stated otherwise. Wheat leaf blotch and brown rust activity were also evaluated using track spray applications, in which case the fungicides were formulated as EC formulations, containing 0.1% Trycol 5941 in the spray solutions. Wheat plants (variety Yuma) were grown from seed in a greenhouse in 50% mineral soil/50% soil-less Metro mix until the first leaf was fully emerged, with 7-10 seedlings per pot. These plants were inoculated with an aqueous spore suspension of Septoria tritici either prior to or after fungicide treatments. After inoculation the plants were kept in 100% relative humidity (one day in a dark dew chamber followed by two to three days in a lighted dew chamber at 20° C.) to permit spores to germinate and infect the leaf. The plants were then transferred to a greenhouse set at 20° C. for disease to develop. When disease symptoms were fully expressed on the 1st leaves of untreated plants, infection levels were assessed on a scale of 0 to 100 percent disease severity. Percent disease control was calculated using the ratio of disease severity on treated plants relative to untreated plants. Example E: Evaluation of Fungicidal Activity: Leaf Spot of Sugar Beets (Cercospora beticola; Bayer code CERCBE) Sugar beet plants (variety HH88) were grown in soil-less Metro mix and trimmed regularly to maintain a uniform plant size prior to test. Plants were inoculated with a spore suspension 24 h after fungicide treatments. Inoculated plants were kept in a dew chamber at 22° C. for 48 h then incubated in a greenhouse set at 24° C. under a clear plastic hood with bottom ventilation until disease symptoms were fully expressed. Fungicide formulation, application and disease assessment on the sprayed leaves followed the procedures as described in the Example A.

[2] = tested on: Mycosphaerella graminicola; Anamorph: Septoria tritici; experiment: Leaf Blotch of Wheat (SEPTTR) fungicidal activity on wheat seedlings; type: in vivo; settings: Zymoseptoria tritici, Low Volume, 121.5 g/H
Procedure, shortened: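 Compounds in acetone were diluted with nine volumes of water containing 110 ppm Triton X-100, or as EC formulations with 0.1% Trycol 5941 for track spray. They were sprayed on first-leaf Yuma wheat seedlings inoculated with S. tritici before or after treatment. Plants spent 1 day dark and 2–3 days lit at 100% RH, 20 °C. Severity (0–100%) was scored once untreated plants were fully diseased; control was computed relative to untreated plants.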

[3] = 24 h, 1 Day Protectant, read-out: SEPTTR 1DP disease control
[4] = 72 h, 3 Day Curative, read-out: SEPTTR 3DC disease control

COc1ccnc(C(=O)N[C@@H](C)C(=O)O[C@@H](C)C(c2ccc(F)cc2F)c2ccc(F)cc2F)c1OC(C)=O [Cmpd 150]
> 80%: pest or weed control at 100 ppm [1] | pest or weed control at 121.5 g/ha [2, 3] | pest or weed control at 121.5 g/ha [2, 4]

COc1ccnc(C(=O)N[C@@H](C)C(=O)O[C@@H](C)C(c2ccc(F)cc2F)c2ccc(F)cc2F)c1OCOC(C)=O [Cmpd 148]
> 80%: pest or weed control at 100 ppm [1] | pest or weed control at 121.5 g/ha [2, 3] | pest or weed control at 121.5 g/ha [2, 4]

COc1ccnc(C(=O)N[C@@H](C)C(=O)O[C@@H](C)C(c2ccccc2)c2ccccc2)c1OC(=O)C(C)C [Cmpd 140]
> 80%: pest or weed control at 100 ppm [1] | pest or weed control at 121.5 g/ha [2, 3] | pest or weed control at 121.5 g/ha [2, 4]

COc1ccnc(C(=O)N[C@@H](C)C(=O)O[C@@H](C)C(c2ccccc2)c2ccccc2)c1OC(C)=O [Cmpd 139, (S)-(S)-1,1-diphenylpropan-2-yl 2-(3-acetoxy-4-methoxypicolinamido)propanoate]
> 80%: pest or weed control at 100 ppm [1] | pest or weed control at 121.5 g/ha [2, 3] | pest or weed control at 121.5 g/ha [2, 4]

COc1ccnc(C(=O)N[C@@H](C)C(=O)O[C@@H](C)C(c2ccc(F)cc2)c2ccc(F)cc2)c1OCOC(C)=O [Cmpd 146]
> 80%: pest or weed control at 100 ppm [1] | pest or weed control at 121.5 g/ha [2, 3] | pest or weed control at 121.5 g/ha [2, 4]

COc1ccnc(C(=O)N[C@@H](C)C(=O)O[C@@H](C)C(c2ccccc2)c2ccccc2)c1OCOC(C)=O [Cmpd 141, (S)-(S)-1,1-diphenylpropan-2-yl 2-(3-(acetoxymethoxy)-4-methoxypicolinamido)propanoate]
> 80%: pest or weed control at 100 ppm [1] | pest or weed control at 121.5 g/ha [2, 3] | pest or weed control at 121.5 g/ha [2, 4]

COc1ccnc(C(=O)N[C@@H](C)C(=O)O[C@@H](C)C(c2ccc(Cl)cc2)c2ccc(Cl)cc2)c1OCOC(C)=O [Cmpd 176]
> 80%: pest or weed control at 100 ppm [1] | pest or weed control at 121.5 g/ha [2, 3] | pest or weed control at 121.5 g/ha [2, 4]

COc1ccnc(C(=O)N[C@@H](C)C(=O)O[C@@H](C)C(c2ccc(Cl)cc2)c2ccc(Cl)cc2)c1OC(C)=O [Cmpd 174]
> 80%: pest or weed control at 100 ppm [1] | pest or weed control at 121.5 g/ha [2, 3] | pest or weed control at 121.5 g/ha [2, 4]

COc1ccnc(C(=O)N[C@@H](C)C(=O)O[C@@H](C)C(c2ccc(F)cc2)c2ccc(F)cc2)c1OC(C)=O [Cmpd 145]
> 80%: pest or weed control at 100 ppm [1] | pest or weed control at 121.5 g/ha [2, 3] | pest or weed control at 121.5 g/ha [2, 4]

COc1ccnc(C(=O)N[C@@H](C)C(=O)O[C@@H](C)C(c2ccccc2)c2ccccc2)c1OCOC(=O)C(C)C [Cmpd 142, (S)-(S)-1,1-diphenylpropan-2-yl 2-(3-((isobutyryloxy)methoxy)-4-methoxypicolinamido)propanoate]
> 80%: pest or weed control at 100 ppm [1] | pest or weed control at 121.5 g/ha [2, 3] | pest or weed control at 121.5 g/ha [2, 4]
